The text below walks through data of ChEMBL document CHEMBL1156829 (Proc Natl Acad Sci U S A, 2008).

pEC50: −log10 of the molar value.

The nature of data set [1]: NOVARTIS: Cytotoxicity against human hepatocellular carcinoma cell line (Huh7). It is filed as toxicity, cell-based, Huh-7. The settings on record: Huh7 cells (hepatocellular carcinoma cell line).
Data set [2] relates to Plasmodium falciparum. In words: NOVARTIS: Inhibition of Plasmodium falciparum W2 (drug-resistant) proliferation in erythrocyte-based infection assay. The format is functional, organism-based. The settings on record: Plasmodium falciparum, W2; read-out: EC50.
Data set [3] relates to Plasmodium falciparum. In words: NOVARTIS: Inhibition of Plasmodium falciparum 3D7 (drug-susceptible) proliferation in erythrocyte-based infection assay. The format is functional, organism-based. Particulars: Plasmodium falciparum, 3D7.

With `CCN1CCN(c2cc(C)c3cc(NC(=O)/C=C/c4ccc(OC)cc4)ccc3n2)CC1`, in data set [1], the CC50 (commonly the concentration at which the toxic effect on the cells reaches its halfway point) was more than 10400 nM. Besides, the pEC50 (usually the EC50 on a negative log10 scale, so that one unit is a factor of ten) with Plasmodium falciparum [2] is 6.12; with Plasmodium falciparum [3] it was 6.04.

The compound `CCN1CCN(c2cc(C)c3cc(NC(=O)/C=C/c4cccc(Cl)c4)ccc3n2)CC1` yielded a cytotoxic concentration (CC50) in data set [1] of more than 13800 nM. Besides, the negative-log EC50 (pEC50) in the data set with Plasmodium falciparum [2] is 5.99; with Plasmodium falciparum [3], 6.03.

As for `CNC(=O)NNC(=O)c1cccnc1`, the half-maximal cytotoxic concentration (CC50) in data set [1] was more than 100000 nM. In addition, the results for the negative logarithm of the EC50 (pEC50) with Plasmodium falciparum [2] and in the data set with Plasmodium falciparum [3] were less than 5.13 and less than 4.90, respectively.

Take `Cc1c2ccccc2c(C)c2ccccc12`: in data set [1], the CC50 came to 21600 nM. Besides, the results for the negative logarithm of the EC50 (pEC50) in the data set with Plasmodium falciparum [2] and in the data set with Plasmodium falciparum [3] were 6.08 and 6.10, respectively.

In turn, `CC(=O)Nc1ccc(Oc2ccc(C(c3ccccc3)(c3ccccc3)c3ccc(Oc4ccc(NC(C)=O)cc4)cc3)cc2)cc1` registered a CC50 in data set [1] of more than 10000 nM. For the same compound, the negative-log EC50 (pEC50) was 6.13 in the data set on Plasmodium falciparum [2] and 6.44 in the data set on Plasmodium falciparum [3].

In data set [1], `O=C1CC(c2ccccc2)Oc2ccc(F)cc21` (stereo not drawn) displayed a CC50 of more than 10000 nM. Moreover, the pEC50 in the data set with Plasmodium falciparum [2] is less than 6.13; with Plasmodium falciparum [3], less than 5.90.

`CCn1c(SCC(=O)N(c2ccccc2)c2ccccc2)nc2sc3c(c2c1=O)CCN(C)C3` registered a CC50 in data set [1] of more than 100000 nM. In addition, the pEC50 in the data set with Plasmodium falciparum [2] is 5.13; in the data set on Plasmodium falciparum [3], less than 5.29.

Compound `CC(C)N(CC(=O)Nc1cc(C(C)(C)C)nn1-c1ccc(Cl)c(Cl)c1)C(=O)c1ccc(C(C)(C)C)cc1` came in with a CC50 in data set [1] of more than 100000 nM. Moreover, the negative-log EC50 (pEC50) with Plasmodium falciparum [2] was 5.13; with Plasmodium falciparum [3], 5.22.

The compound `CCC[n+]1ccc(/C=C/c2ccc(Br)cc2)cc1` registered a CC50 in data set [1] of more than 10000 nM. Also, the pEC50 is 6.42 in the data set on Plasmodium falciparum [2] and 6.19 in the data set on Plasmodium falciparum [3].

For `Fc1ccc(N2CCN(c3ncnc4c3cnn4-c3ccccc3)CC2)cc1`, in data set [1], the half-maximal cytotoxic concentration (CC50) was more than 100000 nM. The pEC50 in the data set with Plasmodium falciparum [2] is 5.42; with Plasmodium falciparum [3], less than 4.90.

On to `CC(=O)N(Cc1ccc2c(c1)OCO2)C1CC(=O)N(c2ccccc2)C1=O` (stereo not drawn), for which the CC50 in data set [1] is more than 10000 nM. Also, the pEC50 was less than 6.42 in the data set with Plasmodium falciparum [2] and less than 5.90 in the data set on Plasmodium falciparum [3].

Compound `COc1ccc(OCCNC(=O)c2ccccc2Cl)cc1` yielded a CC50 in data set [1] of more than 10000 nM. Also, the pEC50 in the data set on Plasmodium falciparum [2] was less than 6.42; in the data set with Plasmodium falciparum [3] it was less than 5.90.

`CCOc1ccccc1CN1CCCC(C(=O)N2CCCCCC2)C1` (stereo not drawn): the CC50 in data set [1] came to 37400 nM. In addition, the pEC50 in the data set on Plasmodium falciparum [2] is 5.85; with Plasmodium falciparum [3], 5.36.

Regarding `CC(C)CNC(=O)c1cnc(NCCCn2ccnc2)nc1NCC1CCCCC1`, the CC50 in data set [1] is more than 10000 nM. Besides, the pEC50 with Plasmodium falciparum [2] was 6.42; in the data set on Plasmodium falciparum [3], 6.56.

`CCN1CCN(c2cc(C)c3cc(NC(=O)C=Cc4ccccc4Cl)ccc3n2)CC1` returned a cytotoxic concentration (CC50) in data set [1] of 18400 nM. Moreover, the pEC50 in the data set with Plasmodium falciparum [2] was 6.16; with Plasmodium falciparum [3] it was 6.26.

In data set [1], `N=c1c2c(n(Cc3ccccc3)c3c1CCC3)CCCC2` showed a half-maximal cytotoxic concentration (CC50) of more than 10000 nM. The pEC50 in the data set with Plasmodium falciparum [2] was 6.13; in the data set on Plasmodium falciparum [3] it was 6.37.

In data set [1], `Nc1nnc(SCC(=O)Nc2nnc(SCC(=O)Nc3nccs3)s2)s1` registered a 50% cytotoxic concentration (CC50) of more than 10000 nM. Also, the figures for the negative-log EC50 (pEC50) with Plasmodium falciparum [2] and in the data set on Plasmodium falciparum [3] were less than 6.13 and less than 5.90, respectively.

Turning to `Nc1nc(Cl)nc2ccccc12`, the CC50 in data set [1] is more than 10000 nM. For the same compound, the pEC50 in the data set on Plasmodium falciparum [2] was 6.13; with Plasmodium falciparum [3] it was 6.29.

For the compound `CCN(CC)c1ccc2cc(C(C)=NNC(N)=S)c(=O)oc2c1`, in data set [1], the CC50 is more than 100000 nM. For the same compound, the negative-log EC50 (pEC50) is 5.13 in the data set on Plasmodium falciparum [2] and 5.37 with Plasmodium falciparum [3].

Regarding `CCCCOc1ccc(/C=C/C(=O)NCc2ccco2)cc1`, the CC50 in data set [1] is more than 10000 nM. Further, the negative logarithm of the EC50 (pEC50) in the data set on Plasmodium falciparum [2] was 6.13; in the data set with Plasmodium falciparum [3] it was 6.74.

The compound `C=C(Cl)CSc1nnc(CCNC(=O)c2ccc(C)cc2)n1-c1ccc(F)cc1` registered a cytotoxic concentration (CC50) in data set [1] of more than 100000 nM. The pEC50 with Plasmodium falciparum [2] is 5.13; with Plasmodium falciparum [3], less than 4.90.

`COc1cc(NC(C)CCCN(Cc2ccc(F)cc2)C(=O)c2ccccc2F)c2ncccc2c1` (stereo not drawn) registered a half-maximal cytotoxic concentration (CC50) in data set [1] of more than 8740 nM. Also, the pEC50 in the data set on Plasmodium falciparum [2] is 6.19; in the data set on Plasmodium falciparum [3], 6.16.

With `COC(=O)CNC(=O)c1sc2ncn(CC(=O)Nc3ccccc3OC)c(=O)c2c1C`, in data set [1], the CC50 is more than 10000 nM. The negative-log EC50 (pEC50) is less than 6.13 with Plasmodium falciparum [2] and less than 6.02 with Plasmodium falciparum [3].

With `O=C1C(O)=CC(=Nc2ccc(Cc3ccncc3)cc2)c2ccccc21`, in data set [1], the 50% cytotoxic concentration (CC50) is more than 10000 nM. Moreover, the pEC50 in the data set on Plasmodium falciparum [2] was 6.13; in the data set with Plasmodium falciparum [3] it was 6.30.

`Cc1ccccc1C(=O)N(CC(=O)Nc1cc(C(C)(C)C)nn1-c1ccccc1Cl)C(C)C`: in data set [1], the CC50 is more than 8810 nM. Moreover, the negative-log EC50 (pEC50) in the data set with Plasmodium falciparum [2] was 6.19; in the data set on Plasmodium falciparum [3] it was 5.96.

`COC(=O)CSc1nnc2c(n1)[nH]c1c(OC)ccc(Cl)c12` returned a CC50 in data set [1] of more than 10000 nM. The pEC50 in the data set on Plasmodium falciparum [2] was 6.13; in the data set with Plasmodium falciparum [3], 6.19.

With `Cc1ccccc1OCCSc1nc2ccc(NC(=O)c3ccccc3)cc2s1`, the CC50 in data set [1] is more than 100000 nM. Further, the pEC50 in the data set on Plasmodium falciparum [2] was less than 5.13; with Plasmodium falciparum [3] it was 5.01.

`O=C1NCCN1C(=O)C(c1ccccc1)c1ccccc1` had a cytotoxic concentration (CC50) in data set [1] of more than 10000 nM. In addition, the pEC50 is less than 6.13 in the data set on Plasmodium falciparum [2] and less than 5.81 with Plasmodium falciparum [3].

`COC(=O)c1c(NC(=O)c2cc3ccccc3oc2=O)sc2c1CCC(C)C2` (stereo not drawn) registered a cytotoxic concentration (CC50) in data set [1] of more than 100000 nM. Besides, the pEC50 with Plasmodium falciparum [2] was less than 5.13; in the data set on Plasmodium falciparum [3], less than 4.90.

In turn, `Cc1cc(C)nc(SCc2cc(=O)c(OC(=O)c3cccc([N+](=O)[O-])c3C)co2)n1` came in with a CC50 in data set [1] of more than 100000 nM. For the same compound, the negative logarithm of the EC50 (pEC50) in the data set on Plasmodium falciparum [2] was less than 5.13; in the data set with Plasmodium falciparum [3], less than 4.90.

Take `CCN(CC)CCCC(C)Nc1ccnc2ccc([N+](=O)[O-])cc12` (stereo not drawn): in data set [1], the CC50 was more than 10000 nM. Besides, the pEC50 is 6.13 in the data set with Plasmodium falciparum [2] and 6.60 in the data set with Plasmodium falciparum [3].

Take `COc1ccc(Nc2nc(-c3cc4cc(OC)ccc4oc3=O)cs2)c(OC)c1`: the CC50 in data set [1] was more than 100000 nM. Moreover, the negative logarithm of the EC50 (pEC50) with Plasmodium falciparum [2] is less than 5.13; in the data set on Plasmodium falciparum [3] it was less than 4.90.

Consider `CC(C)c1cccc(C(C)C)c1NC(=O)N(Cc1ccccc1)C(C)c1nc2ccccc2c(=O)n1-c1ccccc1` (stereo not drawn), for which, in data set [1], the CC50 is more than 10000 nM. The figures for the negative-log EC50 (pEC50) in the data set on Plasmodium falciparum [2] and in the data set with Plasmodium falciparum [3] were 6.13 and 5.88, respectively.

`CCC(C)NC(=O)c1nn(-c2cccc(OC)c2)c(=O)c2ccccc12` (stereo not drawn) showed a cytotoxic concentration (CC50) in data set [1] of more than 100000 nM. Besides, the figures for the pEC50 in the data set on Plasmodium falciparum [2] and with Plasmodium falciparum [3] were 5.42 and 5.71, respectively.

In the case of `CC1CCC(C(C)C)C(OC(=O)Cn2c(-c3ccccc3)[n+](C)c3ccccc32)C1` (stereo not drawn), in data set [1], the CC50 was more than 11200 nM. Besides, the pEC50 is 6.37 with Plasmodium falciparum [2] and 6.42 in the data set with Plasmodium falciparum [3].

`COc1cc(/C=C/C(=O)Nc2ccc3nc(N4CCN(c5ncccn5)CC4)cc(C)c3c2)cc(OC)c1OC`: in data set [1], the CC50 was more than 10000 nM. In addition, the pEC50 in the data set with Plasmodium falciparum [2] is 6.13; in the data set with Plasmodium falciparum [3], 5.88.

`CC(C)C1Oc2cc3oc(=O)ccc3cc2C1=NO` (stereo not drawn): in data set [1], the cytotoxic concentration (CC50) was more than 10000 nM. Also, the pEC50 was 6.13 in the data set with Plasmodium falciparum [2] and less than 5.94 with Plasmodium falciparum [3].

With `Cc1sc2nc3c4ccccc4c(NCCCN(C)C)nn3c(=O)c2c1C`, the CC50 in data set [1] was 60000 nM. In addition, the pEC50 with Plasmodium falciparum [2] is 5.64; in the data set with Plasmodium falciparum [3], 5.18.

`CCN(CC)c1ccc2c(C)cc(Nc3ccccc3)[o+]c2c1`: in data set [1], the CC50 is more than 10000 nM. For the same compound, the pEC50 was 6.13 in the data set on Plasmodium falciparum [2] and 6.62 in the data set on Plasmodium falciparum [3].

The compound `CCC(=O)N1CCc2cc(Br)cc(S(=O)(=O)N3CCN(CC)CC3)c21` had a half-maximal cytotoxic concentration (CC50) in data set [1] of more than 10000 nM. Besides, the pEC50 is less than 6.13 with Plasmodium falciparum [2] and less than 5.79 in the data set on Plasmodium falciparum [3].

Regarding `NC(=O)Oc1ccc(Cc2ccccc2)cc1`, the 50% cytotoxic concentration (CC50) in data set [1] was more than 10000 nM. Also, the negative-log EC50 (pEC50) was 6.13 with Plasmodium falciparum [2] and 6.07 in the data set on Plasmodium falciparum [3].
